Data published in EP1105728B1, “MODULATING MULTIPLE LINEAGE KINASE PROTEINS” (CEPHALON, INC., priority 1998, dated 2000).
Like-named read-outs stand apart in the source and are kept apart here.

Tests used:
[1] = system: intact embryonic dorsal root ganglia; assay: Neurite outgrowth from intact dorsal root ganglia; format: cell-based, chick; conditions: 250 nM Compound III-3 or 20 ng/ml NGF; 48 h
Experimental: Ganglia were placed in 96 well plates previously coated with poly-1-omithine and laminin (5 µg each/ml phosphate buffered saline) in serum-free N2 medium (Bottenstein, et al., Proc. Natl. Acad. Sci. USA, 1979, 76, 514-517, which is incorporated herein by reference in its entirety) containing 0.05% bovine serum albumin (BSA) and maintained for 48 h at 37° and 5% CO2 in a humidified environment. Treated ganglia received either 250 nM Compound III-3 or 20 ng/ml NGF 2 h after plating.

[2] = target: T1, MLK-3 (Homo sapiens, UniProt Q16584); assay: JNK activity (immunoprecipitation/kinase assay) in Cos7 cells overexpressing MLK-3 and HA-JNK1; format: cell-based; conditions: COS-7
T1 construct: A full length cDNA of human MLK-3, MLK-2, or mouse DLK; expressed in transfected cells; host or cells: Cos7
T1 sequence (Q16584 whole entry): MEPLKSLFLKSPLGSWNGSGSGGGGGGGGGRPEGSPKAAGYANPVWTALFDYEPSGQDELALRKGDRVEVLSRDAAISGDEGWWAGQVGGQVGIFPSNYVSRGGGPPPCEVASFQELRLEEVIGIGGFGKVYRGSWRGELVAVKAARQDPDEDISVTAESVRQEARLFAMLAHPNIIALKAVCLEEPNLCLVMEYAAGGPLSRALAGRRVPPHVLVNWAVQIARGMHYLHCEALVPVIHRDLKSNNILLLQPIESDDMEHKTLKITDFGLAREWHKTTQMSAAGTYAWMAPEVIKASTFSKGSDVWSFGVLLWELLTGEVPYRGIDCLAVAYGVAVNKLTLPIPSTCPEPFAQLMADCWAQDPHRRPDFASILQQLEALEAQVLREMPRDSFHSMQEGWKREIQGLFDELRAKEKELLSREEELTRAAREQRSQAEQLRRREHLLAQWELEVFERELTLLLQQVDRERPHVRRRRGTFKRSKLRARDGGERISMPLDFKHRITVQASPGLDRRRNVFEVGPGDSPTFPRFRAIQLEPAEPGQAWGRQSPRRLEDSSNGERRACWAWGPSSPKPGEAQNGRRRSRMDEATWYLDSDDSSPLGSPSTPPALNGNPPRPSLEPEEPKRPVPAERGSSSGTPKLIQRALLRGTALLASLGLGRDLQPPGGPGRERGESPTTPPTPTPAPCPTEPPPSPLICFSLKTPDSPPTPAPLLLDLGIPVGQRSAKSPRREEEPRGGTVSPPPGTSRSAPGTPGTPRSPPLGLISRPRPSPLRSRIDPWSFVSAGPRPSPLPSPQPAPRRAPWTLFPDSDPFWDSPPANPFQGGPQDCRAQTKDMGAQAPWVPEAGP
Experimental: Cos7 cells were plated at 80% confluency and transfected with 2 ug each of cDNA constructs using lipofectamine as recommended by the provider (Gibco BRL, Gaithersburg, MD). A full length cDNA of human MLK-3, MLK-2, or mouse DLK or a partial human MLK-1 as described above, and a full length Hemagluttinin A-tagged human JNK1, kindly provided by J. Silvio Gutkind (NIH, Bethesda, MD), were subcloned into the pcDNA3 vector (Invitrogen, San Diego, CA). […] JNK activity from the lysate was assayed by an immunoprecipitation/kinase assay as described below.
Lysate from Cos 7 cells was measured for protein concentration using the Micro BCA kit from Pierce (Rockford, IL) and equal amounts of protein were immunoprecipitated with the HA antibody for 1 hr at 4°C. Immunoprecipitates were pelleted by centrifugation in a microfuge centrifuge for 20 sec, resuspended in Triton buffer, washed by centrifugation 2 more times, followed by a final wash in Kinase buffer (20 mM Hepes pH 7.4,20 mM MgCl2, 2 mM dithiothreitol, 0.1 mM sodium vanadate). The immunoprecipitate was resuspended in kinase buffer containing 1 µM ATP and 5 µCi [γ-^32P]ATP and substrate (1 µg/sample of AP-1 ) and incubated for 15 min at 30°C. […] Samples were heated to 80°C for 5 min and loaded onto 10% SDS-polyacrylamide gels. Proteins were separated by electrophoresis. The gel was dried and quantitation of radioactivity in the AP-1 substrate was performed on a Molecular Dynamics Phosphorimager (Sunnyvale, Ca.).
To determine whether inhibition of the JNK pathway regulated by these kinases correlated with neurotrophic compounds, we evaluated the effect of compounds on JNK activity in Cos7 cells overexpressing HA-JNK and MLK3. After a 48 hr transfection period, the cells were incubated with compounds at 500 nM for 2hr followed by cellular lysis. Lysate was immunoprecipitated and kinase activity measured as previously described. […]

[3] = system: JNK; assay: JNK activity immunoprecipitated from THP-1 cells; format: cell-based; conditions: Homo sapiens, read-out: THP-1 Cells JNK % inh. 500 nM
Experimental: Assays for JNK activity were performed after immunoprecipitating the JNK protein from an extract of lysed THP-1 cells. Pelleted THP-1 cells were lysed on ice for 15 min in 500 µl of Frac buffer (10 mM Tris-Hcl, pH 7.5,50 mM NaCl, 30 µM sodium pyrophosphate, 1 mg/ml BSA, 1% Triton-X-100). The extract was centrifuged for 10 min at 14K and 5 µl of JNK antibody (Santa Cruz) was added to the supernatant. The extract was rotated for 60 min at 4°C, 75 µl of washed protein A Sepharose (20% w/v in Frac) added and the extract rotated another 30 min to bind the antibody complex to the protein A Sepharose. The protein A Sepharose was washed twice with Frac buffer, once with 20 mM Hepes, pH 7.6, 20 mM MgCl2, 2 mM DTT, then incubated for 15 min at 30° C in 30 µl of kinase buffer (20 mM hepes, 20 mM MgCl2, 2 MM DTT, 1 µg recombinant c-jun, and 2 µM ATP-γ-^32P, 2 µCi. The reaction was terminated by the addition of 10 µl of 4X SDS gel loading buffer, heated for 3 min at 80° C, and the proteins were analyzed on a 10% SDS gel. The gel was dried, exposed to a Phosphorimager plate, and the radioactive bands were analyzed on a Phosphorimager.

[4] = system: substantia nigra tyrosine hydroxylase immunoreactive neurons; assay: MPTP model: substantia nigra tyrosine hydroxylase immunoreactive neurons; format: in vivo, mice; conditions: MPTP 40 mg/kg; systemically administered (Fig. 22a)
Experimental: MPTP was administered at a dose (40 mg/kg) that produces loss of striatal dopaminergic terminals and cell bodies in the substantia nigra. Tyrosine hydroxylase was used as a marker for dopamenergic nerve terminals in the substantia nigra. […] Since Compound III-3 is a known inhibitor of MLK3, activation of a downstream substrate of MLK3 was measured in MPTP- treated mice. Levels of phosphorylated MKK4 were measured using a phospho-MKK4 specific antibody (New England Biolabs, Beverly, MA) that recognizes the monophosphorylated form of MKK4 by either immunoblot (Fig. 22b) or ELISA (Fig. 22c). MPTP administration elevated levels of phosphorylated MKK4 in the substantia nigra by up to 5 fold over control levels (Fig. 22b). Peak elevations occurred 4 hrs after administration ofMPTP and coincided with peak CNS levels of MPP^+.

[5] = system: dorsal root ganglion sensory neurons (DRG); assay: Survival of chick embryonic dorsal root ganglion sensory neurons; format: cell-based
Experimental: Paravertebral sympathetic ganglia (SG; embryonal day 12 (E12)), dorsal root ganglia (DRG;E9), and ciliary ganglia (CG;E8) were dissected from chick embryos at the indicated embryonic day as described in Lindsay, et al., Dev. Biol., 1985, 112, 319-328, which is incorporated herein by reference in its entirety. After trypsinization and dissociation, the nerve cell suspensions were plated onto polyomithine-laminin-coated culture dishes in Ham's F14 culture medium, supplemented with 10% horse serum. Immediately after plating, survival factors were added at the following concentrations: Nerve growth factor (NGF), 20 ng/ml; ciliary neutrophic factor (CNTF), 10 ng/ml. The cultures were maintained at 37° and 5% CO2 in a humidified environment.
Neurons were plated in 35 mm culture dishes with grids (Nunc). […] Cell survival was confirmed by vital staining with trypan blue (not shown).

For CCSCc1ccc2c(c1)c1c3c(c4c5cc(CSCC)ccc5n5c4c1n2C1CC(O)(C(=O)OC)C5(C)O1)CNC3=O (stereo not shown) [III-3], the “neurite outgrowth from intact dorsal root ganglia” value [1] was “Neurites grew”, the inhibition at 0.5 µM ([2]; 500 nM for 2hr, control is JNK activity in the presence of DMSO, read-out: % Inhibition of JNK Activity (average) MLK3 in Cos7 cells) was 94% and the inhibition at 0.5 µM ([2]; read-out: Overexpressed MLK3 in Cos 7 Cells JNK % inh. 500 nM) was 94%. For the same compound, the inhibition at 0.5 µM [3] was 93%, the “loss of substantia nigra tyrosine hydroxylase immunoreactive neurons after MPTP lesion” value [4] was “attenuated the loss” and the “concentration at which the survival effect reached a plateau” value ([5]; 10% serum (Fig. 16)) was “around 1 µM”. For the same compound, the DRG survival ([5]; after four days) was 52%.
